Measurements: patent EP1606307B1, “ESTRIENO[3,2-B]/[3,4-C]PYRROLE DERIVATIVES USEFUL AS MODULATORS OF THE ESTROGEN RECEPTORS” (Ortho-McNeil Pharmaceutical, Inc., priority 2002, dated 2004)

Columns and labels:
[1] = biological target: T1, human estrogen receptor β (Homo sapiens, UniProt Q92731); assay: Estrogen Receptor β Fluorescence Polarization Assay (Fluormone ES2 displacement); assay type: binding; conditions: read-out: ERβ at 1 µM % Inhibition
T1 construct: purchased Panvera
From the text: This assay monitors binding of a fluorescent analog of estrogen (Fluormone ES2, Panvera) to the estrogen receptor. Plates were read in a fluorometer that can be set to polarization mode. A decrease in fluorescence relative to vehicle control is an indication of binding of a compound to the receptor.
It is crucial to avoid introduction of air bubbles into the reaction in each well of the 96 well plate throughout this procedure. (Bubbles on the surface of the reaction disrupt light flow, affecting the polarization reading.) However, it is also crucial to effectively mix the reaction components upon addition to the well.
On ice, a 2X standard mixture of Assay Buffer (Panvera), 10 nM DTT and 40 nM ES2 was prepared. On ice, a 2X reaction mixture of Assay Buffer (Panvera), and 20 nM human estrogen receptor β (hER-β, Panvera) and 40 nM ES2 was also prepared.
Dilutions of test compound were prepared in 30% (v/v) dimethyl sulfoxide/50 mM HEPES, pH 7.5. At this point, the dilutions were 40X the final required concentration.
The standard mixture at 50 µL was then added to each well. The reaction mixture at 48 µL was added to all wells. The compound dilution at 2.5 µL was added to the appropriate wells. The reaction mixtures were mixed using a manual pipette, a roll of aluminum foil adhesive cover was placed on the plate and the plate incubated at room temperature for 1 hour.
Each well on the plate was then read in an LjL Analyst with an excitation wavelength of […] and an emission wavelength of 538.

[2] = biological target: T2, human estrogen receptor α (Homo sapiens, UniProt P03372); assay: Estrogen Receptor α Flash Plate Assay (binding of radiolabeled estrogen); conditions: for inhibition at 1 µM: read-out: ERα at 1µM % Inhibition; for IC50: read-out: ERα Binding IC50
T2 construct: purchased Panvera
T2 sequence (P03372 1-595): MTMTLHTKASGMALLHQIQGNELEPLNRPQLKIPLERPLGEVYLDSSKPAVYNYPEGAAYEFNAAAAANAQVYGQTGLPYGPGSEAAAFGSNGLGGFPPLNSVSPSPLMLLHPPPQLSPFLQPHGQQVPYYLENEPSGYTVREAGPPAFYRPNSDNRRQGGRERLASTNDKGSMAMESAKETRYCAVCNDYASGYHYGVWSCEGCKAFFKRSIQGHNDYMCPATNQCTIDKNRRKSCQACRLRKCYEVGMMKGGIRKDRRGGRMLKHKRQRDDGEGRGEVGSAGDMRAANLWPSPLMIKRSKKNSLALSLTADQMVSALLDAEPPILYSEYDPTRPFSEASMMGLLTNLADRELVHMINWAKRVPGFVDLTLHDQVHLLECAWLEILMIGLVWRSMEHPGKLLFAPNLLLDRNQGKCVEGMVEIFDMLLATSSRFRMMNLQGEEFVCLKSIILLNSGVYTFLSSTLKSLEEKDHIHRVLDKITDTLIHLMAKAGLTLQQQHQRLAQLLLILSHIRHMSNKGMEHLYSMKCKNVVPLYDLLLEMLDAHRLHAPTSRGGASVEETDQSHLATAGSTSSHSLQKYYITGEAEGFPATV
Procedure: This assay monitors binding of radiolabeled estrogen to the estrogen receptor. It was performed on a BioMek 2000 (Beckman). Plates were read in a scintillation counter (Packard TopCount), with decreased counts an indication of binding of a compound to the receptor. The assay was run according to the procedure described by Allan, et al., Anal. Biochem. (1999), 275(2), 243-247.
On day one, 100 µL of Estrogen Screening Buffer (ESB, Panvera) containing 5mM dithiothreitol (DTT, Panvera), 0.5 µg mouse anti-estrogen receptor monoclonal antibody (SRA-1010, Stressgen) and 50 ng purified human estrogen receptor α (nER-α, Panvera) were added to each well of a 96 well FlashPlate Plus plate crosslinked with goat anti-mouse antibodies (NEN Life Sciences). The plate was sealed and incubated at 4°C overnight.
On day two, each well was washed three times with 200 µL PBS, pH 7.2, at room temperature. To each well was then added 98 µL radiolabeled estrogen (0.5 nM, which equals 6 nCi for a 120 Ci/mmol batch, Amersham), diluted in ESB and 5mM dithiothreitol (DTT). To individual wells were then added 2.5 µL test compound diluted in 30% (v/v) dimethyl sulfoxide/50 mM HEPES, pH 7.5. The wells were mixed three times by aspiration, the plate sealed and incubated at room temperature for one hour. The wells were then counted for 1 min in a TopCount scintillation counter (Packard).

MCF-7 cells = assay: MCF-7 Cell Proliferation Assay (14C-thymidine incorporation); assay type: cell-based; conditions: Homo sapiens, MCF7, increase in 14C-thymidine vs vehicle, read-out: MCF7 (Breast) EC50
Procedure: This assay was run according to the procedure described by Welshons, et al., (Breast Cancer Res. Treat., 1987, 10(2), 169-75), with minor modification.
Briefly, MCF-7 cells (from Dr. C. Jordan, Northwestern University) were maintained in RPMI 1640 phenol red free medium (Gibco) in 10% FBS (Hyclone), supplemented with bovine insulin and non-essential amino acid (Sigma). The cells were initially treated with 4-hydoxyltamoxifen (10^-8 M) and let stand at 37°C for 24 hours. Following this incubation with tamoxifen, the cells were treated with compounds at various concentrations.
Compounds to be tested in the agonist mode were added to the culture media at varying concentrations. Compounds to be treated in the antagonist mode were prepared similarly, and 10 nM 17β-estradiol was also added to the culture media. The cells were incubated for 24 hours at 37°C. Following this incubation, 0.1 µCi of ^14C-thymidine (56mCi/mmol, Amersham) was added to the culture media and the cells were incubated for an additional 24 hours at 37°C. The cells were then washed twice with Hank's buffered salt solution (HBSS) (Gibco) and counted with a scintillation counter. The increase in the ^14C-thymidine in the compound treated cells relative to the vehicle control cells were reported as percent increase in cell proliferation.

[3] = test system: Human Endometrial lshikawa Cells; assay: Alkaline Phosphatase Assay in Human Endometrial Ishikawa Cells; assay type: cell-based; conditions: increase in alkaline phosphatase activity vs vehicle
Procedure: This assay was run according to the procedure described by Albert et a., Cancer Res, […], 50(11), 330-6-10, with minor modification.
Ishikawa cells (from ATCC) were maintained in DMEM/F12 (1:1) phenol red free medium (Gibco) supplemented with 10% calf serum (Hyclone). 24 hours prior to testing, the medium was changed to DMEM/F12 (1:1) phenol red free containing 2% calf serum.
Compounds to be tested in the agonist mode were added to the culture media at varying concentrations. Compounds to be treated in the antagonist mode were prepared similarly, and 10 nM 17β-estradiol was also added to the culture media. The cells were then incubated at 37°C for 3 days. On the fourth day, the media was remove, 1 volume of 1X Dilution Buffer (Clontech) was added to the well followed by addition of 1 volume of Assay Buffer (Clontech). The cells were then incubated at room temperature for 5 minutes. 1 volume of freshly prepared Chemiluminescence Buffer (1 volume of chemiluminescent substrate (CSPD) in 19 volume Chemiluminescent Enhancer with final concentration of CSPD at 1.25 mM; Sigma Chemical Co.) was added. The cells were incubated at room temperature for 10 minutes and then quantified on a luminometer. The increase of chemiluminescence over vehicle control was used to calculate the increase in alkaline phosphatase activity.

T1 sequence (Q92731 whole entry): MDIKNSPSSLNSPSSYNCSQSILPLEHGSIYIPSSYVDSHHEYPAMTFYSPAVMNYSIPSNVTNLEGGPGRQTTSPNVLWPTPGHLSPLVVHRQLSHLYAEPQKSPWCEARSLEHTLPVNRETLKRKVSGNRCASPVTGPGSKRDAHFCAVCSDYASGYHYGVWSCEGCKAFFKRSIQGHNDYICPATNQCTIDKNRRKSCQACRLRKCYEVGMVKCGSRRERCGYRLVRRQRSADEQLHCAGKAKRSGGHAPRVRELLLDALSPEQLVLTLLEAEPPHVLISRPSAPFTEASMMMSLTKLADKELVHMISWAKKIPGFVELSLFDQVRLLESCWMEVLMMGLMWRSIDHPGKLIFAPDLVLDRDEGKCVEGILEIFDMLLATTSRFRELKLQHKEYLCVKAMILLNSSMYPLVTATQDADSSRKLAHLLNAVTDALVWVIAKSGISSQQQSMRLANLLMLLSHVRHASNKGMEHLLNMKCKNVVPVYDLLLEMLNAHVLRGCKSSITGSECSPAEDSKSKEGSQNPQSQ

Row | Compound | inhibition at 1 µM [1] | inhibition at 1 µM [2] | EC50 (MCF-7 cells) | EC50 [3] | IC50 [2]
1 | C[C@]12CCC3c4cc5ccn(S(C)(=O)=O)c5cc4CCC3C1CCC2=O (stereo partly shown) [Compound 1] | 6.2% | 11% | – | – | –
2 | C[C@]12CCC3c4ccc5c(ccn5S(C)(=O)=O)c4CCC3C1CCC2=O (stereo partly shown) [Compound 2] | 27% | 45% | – | – | –
3 | C[C@]12CCC3c4cc5cc[nH]c5cc4CCC3C1CCC2=O (stereo partly shown) [Compound 3] | – | – | 240 nM | 1.9 nM | 2200 nM
4 | C[C@]12CCC3c4ccc5[nH]ccc5c4CCC3C1CCC2=O (stereo partly shown) [Compound 4] | – | – | 280 nM | 1.8 nM | 1400 nM
5 | C[C@]12CCC3c4ccc5[nH]ccc5c4CCC3C1CC[C@@H]2O (stereo partly shown) [Compound 6] | – | – | 2.9 nM | 0.21 nM | 42 nM
6 | C[C@]12CCC3c4cc5ccn(S(C)(=O)=O)c5cc4CCC3C1CC[C@@H]2O (stereo partly shown) [Compound 7] | 14% | 19% | – | – | –
7 | C[C@]12CCC3c4cc5cc[nH]c5cc4CCC3C1CC[C@@H]2O (stereo partly shown) [Compound 8] | – | – | 11 nM | 0.44 nM | 40 nM
8 | CCCCC(=O)O[C@H]1CCC2C3CCc4cc5[nH]ccc5cc4C3CC[C@@]21C (stereo partly shown) [Compound 12] | 96% | 95% | – | – | –
9 | C[C@]12CCC3c4cc5cc[nH]c5cc4CCC3C1CC[C@@H]2OC(=O)CCC(=O)O (stereo partly shown) [Compound 13] | – | – | 15 nM | 1.2 nM | 920 nM
10 | CSc1c[nH]c2ccc3c(c12)CCC1C3CC[C@]2(C)C(=O)CCC12 (stereo partly shown) [Compound 15] | 66% | 81% | – | – | –
